Common to all, as to format: in vivo
One assay concerns Phytophthora infestans. Briefly: whole plant or invertebrate. The conditions noted are these: in Solanum lycopersicum, 72 h, read-out: Efficacy in %, based on the untreated control.
The test system of a further assay is Venturia inaequalis. Briefly: Venturia test (apple)/protective. The conditions noted are these: apple plants, protective spray, active compound concentration of 10 ppm, evaluation 12 days after inoculation. As to the method: Venturia test (apple)/protective
Solvent: 4.7 parts by weight of acetone Emulsifier: 0.3 parts by weight of alkylaryl polyglycol ether
(§1) To produce a suitable preparation of active compound, 1 part by weight of active compound is mixed with the stated amounts of solvent and emulsifier, and the concentrate is diluted with water to the desired concentration.
To test for protective activity, young plants are sprayed with the preparation of active compound to run-off point. After the spray coating has dried on, the plants are inoculated with an aqueous suspension of conidia of the causative organism of apple scab (Venturia inaequalis) and then remain in an incubation cupboard at 20° C. and 100% relative atmospheric humidity for 1 day.
The plants are then placed in a greenhouse at 20° C. and a relative atmospheric humidity of about 70%.
Evaluation is carried out 12 days after the inoculation. 0% means an efficacy corresponding to that of the control, 100% means that no infestation is observed.

For a further assay, the system named is Plasmopara viticola. Briefly: Plasmopara test (vines)/protective. The note with it: protective spray, active compound concentration of 100 ppm, evaluation 6 days after inoculation; for pest or weed control at 100 ppm: Plasmopara viticola, 144 h, read-out: Efficacy in %, based on the untreated control. The protocol: Plasmopara test (vines)/protective
Solvent: 4.7 parts by weight of acetone Emulsifier: 0.3 parts by weight of alkyl-aryl polyglycol ether
as §1
To test for protective activity, young plants are sprayed with the preparation of active compound to run-off point. After the spray coating has dried on, the plants are inoculated with an aqueous suspension of spores of Plasmopara viticola and then remain in a humidity chamber at 20-22° C. and 100% relative atmospheric humidity for 1 day. The plants are subsequently placed in a greenhouse at 21° C. and 90% atmospheric humidity for […]. The plants are then moistened and placed in a humidity chamber for 1 day.
Evaluation is carried out 6 days after the inoculation. 0% means an efficacy corresponding to that of the control, whereas an efficacy of 100% means that no infestation is observed.

As for `Cc1nn(C)c(Cl)c1S(=O)(=O)n1c(C#N)nc2cc3c(cc21)OC(F)(F)O3`, the pest or weed control at 100 ppm in the assay with Phytophthora infestans stood at 94%.
Same read-out and setting: the result for `Cc1oncc1OS(=O)n1c(C#N)nc2cc3c(cc21)OC(F)(F)O3` (stereo not drawn) [drawing 362] reads 96%.
With `N#Cc1nc2cc3c(cc2n1S(=O)(=O)c1cccs1)OC(F)(F)C(F)(F)O3` [drawing 356], the pest or weed control at 100 ppm in the assay with Phytophthora infestans was 94%.
For the compound `Cc1oncc1OS(=O)n1c(C#N)nc2cc3c(cc21)OC(F)(F)C(F)(F)O3` (stereo not drawn) [drawing 358], the pest or weed control at 100 ppm in the assay with Phytophthora infestans was 64%.
On to `CN(C)S(=O)(=O)n1c(C#N)nc2cc3c(cc21)OC(F)(F)C(F)(F)O3` [comparison substance (A), 2-Cyano-1-dimethylaminosulphonyl-6,6,7,7-tetrafluoro-[1,4]dioxino[2,3-f]benzimidazole], for which the “Efficacy in %, based on the untreated control” value (from here on “Efficacy in %, based”) with Venturia inaequalis is given as 43%.
In the case of `Cc1oncc1OS(=O)n1c(C#N)nc2cc3c(cc21)OC(F)(F)C(F)(F)O3` (stereo not drawn) [drawing 370], the pest or weed control at 100 ppm in the assay on Plasmopara viticola turned out to be 100%.
For the compound `COC(=O)c1csc(OS(=O)n2c(C#N)nc3cc4c(cc32)OC(F)(F)O4)c1C` (stereo not drawn), the pest or weed control at 100 ppm in the assay with Phytophthora infestans was found to be 97%.
Take `Cc1noc(C)c1S(=O)(=O)n1c(C#N)nc2cc3c(cc21)OC(F)(F)C(F)(F)O3` [drawing 355]: the pest or weed control at 100 ppm in the assay on Phytophthora infestans is 97%.
Turning to `Cc1noc(C)c1OS(=O)N1C(C#N)=NC2C=C3OC(F)(F)OC3=CC21` (stereo not drawn), in the assay on Plasmopara viticola, the pest or weed control at 100 ppm amounted to 100%.
As for `N#Cc1nc2cc3c(cc2n1S(=O)Oc1cccs1)OC(F)(F)C(F)(F)O3` (stereo not drawn), the pest or weed control at 100 ppm in the assay on Plasmopara viticola amounted to 80%.
Take `Cc1noc(C)c1OS(=O)n1c(C#N)nc2cc3c(cc21)OC(F)(F)C(F)(F)O3` (stereo not drawn) [drawing 374]: the “Efficacy in %, based” value in the assay with Plasmopara viticola was found to be 100%.
For `Cc1noc(C)c1S(=O)(=O)n1c(C#N)nc2cc3c(cc21)OC(F)(F)C(F)(F)O3` [drawing 352], the “Efficacy in %, based” value in the assay with Venturia inaequalis is given as 58%.
Same read-out and setting: to `N#Cc1nc2cc3c(cc2n1S(=O)(=O)c1cccs1)OC(F)(F)C(F)(F)O3` [drawing 353] belongs 87%.
Consider `COC(=O)c1sccc1OS(=O)n1c(C#N)nc2cc3c(cc21)OC(F)(F)C(F)(F)O3` (stereo not drawn), for which the pest or weed control at 100 ppm in the assay on Plasmopara viticola came out at 100%.
As to `CN(C)OS(=O)n1c(C#N)nc2cc3c(cc21)OC(F)(F)C(F)(F)O3` (stereo not drawn), in the assay on Venturia inaequalis, the “Efficacy in %, based” value turned out to be 43%.
With `Cc1nn(C)c(Cl)c1S(=O)(=O)n1c(C#N)nc2cc3c(cc21)OC(F)(F)C(F)(F)O3` [drawing 359], in the assay on Phytophthora infestans, the pest or weed control at 100 ppm is 94%.
Turning to `Cc1noc(C)c1S(=O)(=O)n1c(C#N)nc2c(Br)cc(C(F)(F)F)cc21` [drawing 373], the pest or weed control at 100 ppm with Plasmopara viticola came to 95%.
The same measure, in the same setting: to `Cc1noc(C)c1OS(=O)n1c(C#N)nc2cc3c(cc21)OC(F)(F)C(F)(F)O3` (stereo not drawn) [drawing 367] belongs 100%.
Regarding `Cc1noc(C)c1S(=O)(=O)n1c(C#N)nc2c(Br)cc(C(F)(F)F)cc21` [drawing 363], the pest or weed control at 100 ppm in the assay on Phytophthora infestans is 74%.
Still for that read-out and setting: the result for `Cc1noc(C)c1S(=O)(=O)n1c(C#N)nc2cc3c(cc21)OC(F)(F)O3` [drawing 354] reads 100%.
Regarding `Cc1nn(C)c(Cl)c1S(=O)(=O)n1c(C#N)nc2cc3c(cc21)OC(F)(F)C(F)(F)O3` [drawing 371], the pest or weed control at 100 ppm in the assay on Plasmopara viticola came to 74%.
With `COC(=O)c1sccc1S(=O)(=O)n1c(C#N)nc2cc3c(cc21)OC(F)(F)C(F)(F)O3`, the pest or weed control at 100 ppm in the assay on Phytophthora infestans worked out at 82%.
On to `Cc1noc(C)c1OS(=O)n1c(C#N)nc2cc3c(cc21)OC(F)(F)C(F)(F)O3` (stereo not drawn) [drawing 365], for which the pest or weed control at 100 ppm in the assay on Phytophthora infestans is 97%.
On to `Cc1noc(C)c1S(=O)(=O)n1c(C#N)nc2cc3c(cc21)OC(F)(F)O3` [drawing 351], for which the “Efficacy in %, based” value in the assay with Venturia inaequalis worked out at 81%.
`N#Cc1nc2cc3c(cc2n1S(=O)Oc1cccs1)OC(F)(F)O3` (stereo not drawn): the pest or weed control at 100 ppm in the assay on Phytophthora infestans was determined as 94%.
`Cc1oncc1OS(=O)n1c(C#N)nc2cc3c(cc21)OC(F)(F)O3` (stereo not drawn) [drawing 372]: in the assay on Plasmopara viticola, the pest or weed control at 100 ppm worked out at 100%.
As for `CN(C)OS(=O)n1c(C#N)nc2cc3c(cc21)OC(F)(F)O3` (stereo not drawn) [drawing 350], the “Efficacy in %, based” value in the assay on Venturia inaequalis worked out at 0%.

The values above are taken from patent US20020026059A1 (priority 1995, published 2002).
